# From patent US11951109B2, “EZH2 inhibitors for treating lymphoma” (Epizyme, Inc., priority 2015, dated 2024)
# Experiments:
# HT = assay: Combination of EPZ-6438 and other therapeutic agents (4+3 model), HT; details: WT EZH2 GCB
# TMD8 = assay: Combination of EPZ-6438 and other therapeutic agents (4+3 model), TMD8; details: WT EXH2 ABC
# RC-K8 = assay: Combination of EPZ-6438 and other therapeutic agents (4+3 model), RC-K8; details: WT EXH2 ABC
# SUDHL5 = assay: Combination of EPZ-6438 and other therapeutic agents (4+3 model), SUDHL5; details: for combination effect with EPZ-6438, SUDHL5: WT EZH2 GCB
# Farage = assay: Combination of EPZ-6438 and other therapeutic agents (4+3 model), Farage; details: WT EZH2 GCB
# SUDHL2 = assay: Combination of EPZ-6438 and other therapeutic agents (4+3 model), SUDHL2; details: WT EXH2 ABC
# OCI-LY7 = assay: Combination of EPZ-6438 and other therapeutic agents (4+3 model), OCI-LY7; details: WT EZH2 GCB
# OCI-LY3 = assay: Combination of EPZ-6438 and other therapeutic agents (4+3 model), OCI-LY3; details: WT EXH2 ABC
# SU-DHL-6 = assay: Combination of EPZ-6438 and other therapeutic agents (4+3 model), SU-DHL-6; details: for combination effect with EPZ-6438, SU-DHL-6: Mutant EZH2 GCB; for combination effect with EPZ-6438, SU-DHL-6 (mutant EZH2 GC): Table 3
# WSU-DLCL2 = assay: Combination of EPZ-6438 and other therapeutic agents (4+3 model), WSU-DLCL2; details: for combination effect with EPZ-6438, WSU-DLCL2: Mutant EZH2 GCB, EPZ-6438 4 days then co-treatment 3 days (4+3 model); for combination effect with EPZ-6438, WSU-DLCL2 (mutant EZH2 GC): Table 3, 4+3 model
# SU-DHL-10 = assay: Combination of EPZ-6438 and other therapeutic agents (4+3 model), SU-DHL-10; details: for combination effect with EPZ-6438, SU-DHL-10: Mutant EZH2 GCB; for combination effect with EPZ-6438, SU-DHL-10 (mutant EZH2 GC): Table 3
# KARPAS-422 = assay: Combination of EPZ-6438 and other therapeutic agents (4+3 model), KARPAS-422; details: Mutant EZH2 GCB
# DOHH2 = assay: Combination of EPZ-6438 and other therapeutic agents (4+3 model), DOHH2; type: cell-based; details: for combination effect with EPZ-6438, DOHH2 (WT EZH2 GC): Table 3; for combination effect with EPZ-6438, DOHH2: WT EZH2 GCB
# Toledo = details: Table 3; 4+3 model
# Non-Hodgkin's lymphoma = assay: Phase 1 clinical study of EPZ-6438: tumor response; type: in vivo, human
# From the text: (§1) The phase 1 trial enrolled patients with relapsed/refractory solid tumors and B cell lymphoma. The study employed a standard 3+3 dose escalation design with two planned dose expansion cohorts and clinical pharmacology sub-studies. The primary endpoint was determination of a recommended phase 2 dose or MTD with standard secondary endpoints. The results of the study are also presented in WO 2015195848 and figures therein, the content of which is hereby incorporated by reference in its entirety.
# The patients enrolled included 19 patients with Non-Hodgkin's lymphoma (NHL) of which 13 patients have DLBCL. Cell-of origin testing was intended for all NHL patients; however, 3 DLBCL patients had insufficient tissue to permit determination of germinal center vs. non-germinal center status. EZH2 mutation testing was centrally performed for 14 NHL patients by the Cobas® test (Roche). One lymphoma patient whose tumor has been treated to date carries an EZH2 mutation. For the solid tumor patients, attention has been given to recruiting patients with INI1-deficient tumors due to the oncogenic role of EZH2 in these tumors.
# NHL patients on study were heavily pre-treated with 85% having received three or more prior systemic therapies and nearly half receiving four or more prior regimens.
# clinical = details: human, in vivo
# From the text: as §1
# […]. […] While a decrease in AUC between the first dose and day 15 was observed, there was no further reduction in systemic exposure beyond that time, as evidenced by pre-dose Ctrough levels in the right panel.
# H3K27 trimethylation = assay: Phase 1 clinical study: tri-methyl H3K27 levels in skin biopsy by immunohistochemistry; type: in vivo, human; details: for reduction from baseline in PD H3K27 trimethylation in skin biopsy: wild type EZH2
# From the text: Pre- and post-dose skin biopsies were collected to assess pharmacodynamics in a surrogate tissue through the measurement of tri-methyl H3K27 levels by immunohistochemistry.
# [1] = human, in vivo
# From the text: as §1
# […]. One patient discontinued drug for grade 4 neutropenia. Both of these patients were treated in the 800 mg expansion cohort. • Seven patients had dose interruptions. Of these, 6 were from a reversible toxicity and resumed study agent at prior dose without further issue.
# KARPAS 422 tumor = assay: Single agent activity of EPZ-6438 in KARPAS 422 tumor (FIG. 2A); type: in vivo; details: mutant EZH2 (Y646N)
# WSU-DLCL2 tumor = assay: EPZ-6438 with CHOP chemotherapy in vivo, WSU-DLCL2 tumor (FIG. 3A)
# SUDHL6 tumor = assay: EPZ-6438 with CHOP chemotherapy in vivo, SUDHL6 tumor (FIG. 3B, 3C)
# OCI-LY19 = assay: Combination of EPZ-6438 and other therapeutic agents (4+3 model), OCI-LY19; details: for combination effect with EPZ-6438, OCI-LY19: WT EZH2 GCB
# [2] = patient with primary mediastinal B-cell lymphoma, wild type EZH2, 200 mg orally twice a day
compound,measurement,setting,value
C=CC(=O)N1CCC[C@@H](n2nc(-c3ccc(Oc4ccccc4)cc3)c3c(N)ncnc32)C1 [Ibrutinib],"combination effect with EPZ-6438, HT",HT,S
same,"combination effect with EPZ-6438, TMD8",TMD8,S
same,"combination effect with EPZ-6438, RC-K8",RC-K8,ADD.
same,"combination effect with EPZ-6438, SUDHL5",SUDHL5,S
same,"combination effect with EPZ-6438, Farage",Farage,S
same,"combination effect with EPZ-6438, SUDHL2",SUDHL2,ADD.
same,"combination effect with EPZ-6438, OCI-LY7",OCI-LY7,S
same,"combination effect with EPZ-6438, OCI-LY3",OCI-LY3,ADD.
same,"combination effect with EPZ-6438, SU-DHL-6",SU-DHL-6,S
same,"combination effect with EPZ-6438, WSU-DLCL2",WSU-DLCL2,S
same,"combination effect with EPZ-6438, SU-DHL-10",SU-DHL-10,S
same,"combination effect with EPZ-6438, KARPAS-422",KARPAS-422,S
CC[C@]1(O)C[C@H]2CN(CCc3c([nH]c4ccccc34)[C@@](C(=O)OC)(c3cc4c(cc3OC)N(C=O)[C@H]3[C@@](O)(C(=O)OC)[C@H](OC(C)=O)[C@]5(CC)C=CCN6CC[C@]43[C@@H]65)C2)C1 [Vincristine],"combination effect with EPZ-6438, DOHH2 (WT EZH2 GC)",DOHH2,No effect
same,"combination effect with EPZ-6438, Toledo (WT EZH2 ABC)",Toledo,No effect
same,"combination effect with EPZ-6438, SU-DHL-6 (mutant EZH2 GC)",SU-DHL-6,Additive
same,"combination effect with EPZ-6438, WSU-DLCL2 (mutant EZH2 GC)",WSU-DLCL2,Additive
same,"combination effect with EPZ-6438, SU-DHL-10 (mutant EZH2 GC)",SU-DHL-10,Additive
COc1cccc2c1C(=O)c1c(O)c3c(c(O)c1C2=O)C[C@@](O)(C(=O)CO)C[C@@H]3O[C@H]1C[C@H](N)[C@H](O)[C@H](C)O1 [Doxorubicin],"combination effect with EPZ-6438, DOHH2 (WT EZH2 GC)",DOHH2,No effect
same,"combination effect with EPZ-6438, Toledo (WT EZH2 ABC)",Toledo,No effect
same,"combination effect with EPZ-6438, SU-DHL-6 (mutant EZH2 GC)",SU-DHL-6,Additive
same,"combination effect with EPZ-6438, WSU-DLCL2 (mutant EZH2 GC)",WSU-DLCL2,Synergy
same,"combination effect with EPZ-6438, SU-DHL-10 (mutant EZH2 GC)",SU-DHL-10,Additive
"CCN(c1cc(-c2ccc(CN3CCOCC3)cc2)cc(C(=O)NCc2c(C)cc(C)[nH]c2=O)c1C)C1CCOCC1 [EPZ-6438, tazemetostat]",objective response,Non-Hodgkin's lymphoma; DLBCL,5 of 9
same,reduction of abdominal mass,"Non-Hodgkin's lymphoma; DLBCL patient with EZH2 mutation, by week 16",52%
same,objective response,Non-Hodgkin's lymphoma; evaluable NHL patients,Nine of 15
same,objective response,Non-Hodgkin's lymphoma; follicular lymphoma,3 of 5
same,response,"Non-Hodgkin's lymphoma; one patient with marginal zone nodular lymphoma, approaching one year on therapy",partial response
same,FDG uptake,Non-Hodgkin's lymphoma; [2],reduction
same,reduction in lesion size via computed tomography (CT),Non-Hodgkin's lymphoma; [2],73%
same,reduction in lesion size via computed tomography (CT),"Non-Hodgkin's lymphoma; patient with transformed DLBCL, wild type EZH2, 100 mg orally twice a day",66%
same,PK at steady state throughout the entire dosing range,clinical,dose-proportional linear PK
same,absorption,clinical,rapid absorption
same,half-life,clinical,3 to 5 h
same,reduction from baseline in PD H3K27 trimethylation in skin biopsy,"H3K27 trimethylation; patient with primary mediastinal B-cell lymphoma, 200 mg orally twice a day",27%
same,reduction from baseline in PD H3K27 trimethylation in skin biopsy,"H3K27 trimethylation; patient with transformed DLBCL, 100 mg orally twice a day",21%
same,tri-methyl H3K27 levels across the full thickness of skin,H3K27 trimethylation; pre- and post-dose skin biopsies,dose-dependent reduction
same,"Grade 3 or greater adverse events, fraction of patients",[1],a third
same,Grade 3 or greater treatment-related adverse events,[1],5 patients
same,tolerability,[1],well-tolerated
same,"tumor growth, single agent",KARPAS 422 tumor,growth inhibition
same,effect of combination with CHOP chemotherapy on mean tumor volume,WSU-DLCL2 tumor,synergy
same,effect of combination with CHOP chemotherapy on mean tumor volume and survival,SUDHL6 tumor,synergy
same,activity of EPZ-6438 in combination with prednisolone,"OCI-LY19; OCI-LY19, FIG. 1B",possesses activity
C[C@]12C=CC(=O)C=C1CC[C@@H]1[C@@H]2[C@@H](O)C[C@@]2(C)[C@H]1CC[C@]2(O)C(=O)CO [Prednisolone],"combination effect with EPZ-6438, DOHH2 (WT EZH2 GC)",DOHH2,Synergy
same,"combination effect with EPZ-6438, DOHH2",DOHH2,S
same,"combination effect with EPZ-6438, Toledo (WT EZH2 ABC)",Toledo,No effect
same,"combination effect with EPZ-6438, TMD8",TMD8,S
same,"combination effect with EPZ-6438, RC-K8",RC-K8,S
same,"combination effect with EPZ-6438, SU-DHL-5 (WT EZH2 GC)",SUDHL5; Table 3,Synergy
same,"combination effect with EPZ-6438, SUDHL5",SUDHL5,S
same,"combination effect with EPZ-6438, Farage",Farage,S
same,"combination effect with EPZ-6438, SUDHL2",SUDHL2,S
same,"combination effect with EPZ-6438, OCI-LY7",OCI-LY7,S
same,"combination effect with EPZ-6438, OCI-LY3",OCI-LY3,S
same,"combination effect with EPZ-6438, SU-DHL-6",SU-DHL-6,S
same,"combination effect with EPZ-6438, SU-DHL-6 (mutant EZH2 GC)",SU-DHL-6,Synergy
same,"combination effect with EPZ-6438, OCI-LY-19 (WT EZH2 GC)","OCI-LY19; Table 3, 4+3 model",Synergy
same,"combination effect with EPZ-6438, OCI-LY19",OCI-LY19; 4+3 model,S
same,"combination effect with EPZ-6438, WSU-DLCL2",WSU-DLCL2,S
same,"combination effect with EPZ-6438, WSU-DLCL2 (mutant EZH2 GC)",WSU-DLCL2,Synergy
same,"combination effect with EPZ-6438, SU-DHL-10",SU-DHL-10,S
same,"combination effect with EPZ-6438, SU-DHL-10 (mutant EZH2 GC)",SU-DHL-10,Synergy
same,"combination effect with EPZ-6438, KARPAS-422",KARPAS-422,S
C[C@@H]1C[C@H]2[C@@H]3CCC4=CC(=O)C=C[C@]4(C)[C@@]3(F)[C@@H](O)C[C@]2(C)[C@@]1(O)C(=O)CO [Dexamethasone],"combination effect with EPZ-6438, DOHH2",DOHH2,S
same,"combination effect with EPZ-6438, Toledo (WT EZH2 ABC)",Toledo,No effect
same,"combination effect with EPZ-6438, TMD8",TMD8,S
same,"combination effect with EPZ-6438, RC-K8",RC-K8,S
same,"combination effect with EPZ-6438, SUDHL5",SUDHL5,S
same,"combination effect with EPZ-6438, Farage",Farage,S
same,"combination effect with EPZ-6438, SUDHL2",SUDHL2,S
same,"combination effect with EPZ-6438, OCI-LY7",OCI-LY7,S
same,"combination effect with EPZ-6438, OCI-LY3",OCI-LY3,S
same,"combination effect with EPZ-6438, SU-DHL-6",SU-DHL-6,S
same,"combination effect with EPZ-6438, OCI-LY19",OCI-LY19; 4+3 model,S
same,"combination effect with EPZ-6438, WSU-DLCL2",WSU-DLCL2,S
same,"combination effect with EPZ-6438, SU-DHL-10",SU-DHL-10,S
same,"combination effect with EPZ-6438, KARPAS-422",KARPAS-422,S
CO[C@H]1C[C@@H]2CC[C@@H](C)[C@@](O)(O2)C(=O)C(=O)N2CCCC[C@H]2C(=O)O[C@H]([C@H](C)C[C@@H]2CC[C@@H](OCCO)[C@H](OC)C2)CC(=O)[C@H](C)/C=C(\C)[C@@H](O)[C@@H](OC)C(=O)[C@H](C)C[C@H](C)/C=C/C=C/C=C/1C [Everolimus],"combination effect with EPZ-6438, HT",HT,S
same,"combination effect with EPZ-6438, TMD8",TMD8,S
same,"combination effect with EPZ-6438, RC-K8",RC-K8,S
same,"combination effect with EPZ-6438, SUDHL5",SUDHL5,S
same,"combination effect with EPZ-6438, Farage",Farage,S
same,"combination effect with EPZ-6438, SUDHL2",SUDHL2,S
same,"combination effect with EPZ-6438, OCI-LY7",OCI-LY7,S
same,"combination effect with EPZ-6438, OCI-LY3",OCI-LY3,S
same,"combination effect with EPZ-6438, SU-DHL-6",SU-DHL-6,S
same,"combination effect with EPZ-6438, WSU-DLCL2",WSU-DLCL2,S
same,"combination effect with EPZ-6438, SU-DHL-10",SU-DHL-10,S
same,"combination effect with EPZ-6438, KARPAS-422",KARPAS-422,ADD.
